Reference: ChEMBL document CHEMBL5316319, “Targeting Death-Associated Protein Kinases for Treatment of Human Diseases: Recent Advances and Future Directions” (J Med Chem, 2023)
Each block holds one compound with its values, some of them ahead of it.

Experiments:
[1] = molecular target: T1, Death-associated protein kinase 1 (Homo sapiens, UniProt P53355); test: Inhibition of DAPK1 (unknown origin)
[2] = molecular target: T2, Serine/threonine-protein kinase 17B (Homo sapiens, UniProt O94768); test: Inhibition of recombinant GST-tagged DRAK2 (unknown origin) by promega ADP-Glo assay
T2 sequence (O94768 whole entry): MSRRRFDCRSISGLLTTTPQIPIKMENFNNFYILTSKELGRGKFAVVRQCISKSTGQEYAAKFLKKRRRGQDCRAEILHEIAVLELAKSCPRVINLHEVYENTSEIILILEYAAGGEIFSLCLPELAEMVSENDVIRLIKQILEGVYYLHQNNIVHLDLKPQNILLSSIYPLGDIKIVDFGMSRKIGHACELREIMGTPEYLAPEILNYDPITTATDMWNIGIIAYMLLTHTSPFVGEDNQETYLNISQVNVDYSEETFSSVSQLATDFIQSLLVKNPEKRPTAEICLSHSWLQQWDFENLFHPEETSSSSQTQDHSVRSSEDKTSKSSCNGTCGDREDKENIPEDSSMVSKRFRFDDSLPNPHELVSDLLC

[3] = molecular target: T1, Death-associated protein kinase 1; test: Inhibition of DAPK1 (1 to 285 residues) (unknown origin) expressed in Escherichia coli using KKLNRTLSFAEPG as substrate in presence of ATP by fluoro-spark kinase assay
[4] = molecular target: T3, Death-associated protein kinase 3 (Homo sapiens, UniProt O43293); test: Inhibition of human recombinant GST-fused DAPK3 (1 to 320 residues) expressed in Escherichia coli BL21 (DE3) assessed as inhibition constant using MYPT1 as peptide substrate incubated for 10 mins in presence of [gamma-32P]ATP by radiometric scintillation assay
[5] = molecular target: Serine/threonine-protein kinase pim-2 (Homo sapiens, UniProt Q9P1W9); test: Inhibition of human full length-His6 tagged PIM2 (1 to 311 residues) expressed in Escherichia coli BL21 (DE3) assessed as inhibition constant using RSRHSSYPAGT as peptide substrate incubated for 10 mins in presence of [gamma-32P]ATP by radiometric scintillation assay
[6] = molecular target: T4, Serine/threonine-protein kinase pim-3 (Homo sapiens, UniProt Q86V86); test: Inhibition of human full length-His6 tagged PIM3 (1 to 326 residues) expressed in Escherichia coli BL21 (DE3) assessed as inhibition constant using RSRHSSYPAGT as peptide substrate incubated for 10 mins in presence of [gamma-32P]ATP by radiometric scintillation assay
[7] = molecular target: Serine/threonine-protein kinase pim-1 (Homo sapiens, UniProt P11309); test: Inhibition of human full length-His6 tagged PIM1 (1 to 312 residues) expressed in Escherichia coli BL21 (DE3) assessed as inhibition constant using RSRHSSYPAGT as peptide substrate incubated for 10 mins in presence of [gamma-32P]ATP by radiometric scintillation assay
[8] = molecular target: T1, Death-associated protein kinase 1; test: Inhibition of DAPK1 (unknown origin) in presence of 33P-ATP radiolabeled kinase assay
[9] = molecular target: T5, Serine/threonine-protein kinase 17A (Homo sapiens, UniProt Q9UEE5); test: Inhibition of DRAK1 (unknown origin)
T5 sequence (Q9UEE5 whole entry): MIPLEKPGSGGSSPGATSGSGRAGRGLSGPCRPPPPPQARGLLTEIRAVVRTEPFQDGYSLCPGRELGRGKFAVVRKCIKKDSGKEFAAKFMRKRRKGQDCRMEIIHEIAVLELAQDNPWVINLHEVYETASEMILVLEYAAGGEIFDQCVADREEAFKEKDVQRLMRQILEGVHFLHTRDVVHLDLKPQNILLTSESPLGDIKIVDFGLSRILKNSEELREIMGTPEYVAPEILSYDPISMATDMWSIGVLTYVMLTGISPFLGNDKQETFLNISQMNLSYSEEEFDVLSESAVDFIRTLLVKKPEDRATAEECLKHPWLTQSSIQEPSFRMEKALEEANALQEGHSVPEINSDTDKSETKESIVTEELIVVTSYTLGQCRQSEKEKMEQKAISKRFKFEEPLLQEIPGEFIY

[10] = molecular target: T3, Death-associated protein kinase 3; test: Inhibition of DAPK3 (unknown origin)
[11] = molecular target: T2, Serine/threonine-protein kinase 17B; test: Inhibition of DRAK2 (unknown origin)
[12] = molecular target: Death-associated protein kinase 2 (Homo sapiens, UniProt Q9UIK4); test: Binding affinity to DAPK2 (unknown origin) assessed as dissociation constant
[13] = molecular target: T4, Serine/threonine-protein kinase pim-3; test: Inhibition of PIM3 (unknown origin) at 10 uM by (33P-ATP) filter-binding assay relative to control
[14] = molecular target: T1, Death-associated protein kinase 1; test: Inhibition of DAPK1 (unknown origin) at 10 uM by (33P-ATP) filter-binding assay relative to control
[15] = molecular target: T3, Death-associated protein kinase 3; test: Binding affinity to DAPK3 (unknown origin) assessed as dissociation constant
[16] = molecular target: T2, Serine/threonine-protein kinase 17B; test: Binding affinity to DRAK2 (unknown origin) assessed as dissociation constant

Compound: CCc1ccccc1-c1nn(CCCCCCCCCCC(=O)Nc2cnnc(-c3ccccc3)c2)c(=N)cc1C
IC50 [1]: 13 µM

Compound: COc1cc(-c2ccc3ncc(-c4ccc(C(=O)NCCN(C)C)cc4)n3n2)ccc1O
IC50 [1]: 0.247 µM

Compound: O=C1c2ccccc2C(=O)c2c1ccc(O)c2O [ATHRAQUINONES A]
IC50 [3]: 3.6 µM

Compound: Cc1nc2c(OCc3ccccc3)ncnc2n1C(C)C
IC50 [8]: 23 µM

Compound: Nc1c(O)c(S(=O)(=O)O)c(O)c2c1C(=O)c1ccccc1C2=O
IC50 [3]: 9.6 µM

Compound: c1ccc(COc2ncnc3c2ncn3Cc2ccccc2)cc1
IC50 [8]: 5.9 µM

Compound: CC(C)(C)n1c(-c2ccccc2)nc2c(OCc3ccccc3)ncnc21
IC50 [8]: 2.5 µM

Compound: O=C1c2ccccc2C(=O)c2c(O)c(O)cc(O)c21 [PURPURIN]
IC50 [3]: 0.89 µM

Compound: Nc1c(-c2n[nH]c(=S)o2)sc2ncc(-c3ccsc3)cc12
Kd [16]: 0.008 µM

Second part, led by results:

IC50 [2]: 11.6 µM
Compound: COC(=O)C1=C2Nc3ccccc3C23CC2N(C)[C@H]3C[C@H]1[C@@]2(C)C(C)=O (stereo not given in full)

Ki [5]: > 100 µM
Ki [6]: 1.07 µM
Ki [7]: 6.48 µM
Compound: CCC(Sc1nc2c(cnn2-c2cccc(F)c2)c(=O)[nH]1)C(N)=O (stereo not given)
Ki [4]: 0.119 µM

IC50 [9]: 0.1 µM
IC50 [11]: 0.01 µM
Compound: COc1cnc(Nc2ccc(CS(C)(=O)=O)cc2)nc1Nc1cc(C2CC2)[nH]n1
IC50 [10]: 0.31 µM
IC50 [1]: 0.37 µM

Ki [5]: 17.3 µM
Ki [6]: 0.072 µM
Ki [7]: 1.48 µM
Compound: N#CCSc1nc2c(cnn2-c2cccc(Cl)c2)c(=O)[nH]1
Ki [4]: 0.315 µM

Ki [5]: 0.208 µM
inhibition [13]: 76%
Ki [6]: > 100 µM
Ki [7]: 2.94 µM
Compound: CC(Sc1nc2c(cnn2-c2cccc(Cl)c2)c(=O)[nH]1)C(N)=O (stereo not given)
Ki [4]: 0.26 µM
Kd [12]: 0.079 µM
inhibition [14]: 89%
Kd [15]: 0.28 µM

Ki [5]: > 100 µM
Ki [6]: 2.5 µM
Ki [7]: 6.31 µM
Compound: CC(C)(Sc1nc2c(cnn2-c2ccccc2)c(=O)[nH]1)C(N)=O
Ki [4]: 0.126 µM

Kd [16]: 0.25 µM
Compound: Nc1c(-c2n[nH]c(=S)o2)sc2ccc(Cl)cc12
